Results from patent US20210300940A1 (Merck Patent GmbH, priority 2018, published 2021).
Structures can show the parent of a compound that is named as a salt.

Experiments:
TLR7 = target: T1, TLR7 (Homo sapiens, UniProt Q9NYK1); experiment: HEK/293 TLR7 Cell Assay; format: cell-based; settings: TLR7/NFKb HEK cells, R848 agonist 10 uM final concentration, Steady-Glo readout; read-out: TLR7 potency
T1 construct: expressed in transfected cells; host or cells: HEK/293 cells carrying TLR7 and an NF-kB luciferase reporter
T1 sequence (Q9NYK1 27-1049): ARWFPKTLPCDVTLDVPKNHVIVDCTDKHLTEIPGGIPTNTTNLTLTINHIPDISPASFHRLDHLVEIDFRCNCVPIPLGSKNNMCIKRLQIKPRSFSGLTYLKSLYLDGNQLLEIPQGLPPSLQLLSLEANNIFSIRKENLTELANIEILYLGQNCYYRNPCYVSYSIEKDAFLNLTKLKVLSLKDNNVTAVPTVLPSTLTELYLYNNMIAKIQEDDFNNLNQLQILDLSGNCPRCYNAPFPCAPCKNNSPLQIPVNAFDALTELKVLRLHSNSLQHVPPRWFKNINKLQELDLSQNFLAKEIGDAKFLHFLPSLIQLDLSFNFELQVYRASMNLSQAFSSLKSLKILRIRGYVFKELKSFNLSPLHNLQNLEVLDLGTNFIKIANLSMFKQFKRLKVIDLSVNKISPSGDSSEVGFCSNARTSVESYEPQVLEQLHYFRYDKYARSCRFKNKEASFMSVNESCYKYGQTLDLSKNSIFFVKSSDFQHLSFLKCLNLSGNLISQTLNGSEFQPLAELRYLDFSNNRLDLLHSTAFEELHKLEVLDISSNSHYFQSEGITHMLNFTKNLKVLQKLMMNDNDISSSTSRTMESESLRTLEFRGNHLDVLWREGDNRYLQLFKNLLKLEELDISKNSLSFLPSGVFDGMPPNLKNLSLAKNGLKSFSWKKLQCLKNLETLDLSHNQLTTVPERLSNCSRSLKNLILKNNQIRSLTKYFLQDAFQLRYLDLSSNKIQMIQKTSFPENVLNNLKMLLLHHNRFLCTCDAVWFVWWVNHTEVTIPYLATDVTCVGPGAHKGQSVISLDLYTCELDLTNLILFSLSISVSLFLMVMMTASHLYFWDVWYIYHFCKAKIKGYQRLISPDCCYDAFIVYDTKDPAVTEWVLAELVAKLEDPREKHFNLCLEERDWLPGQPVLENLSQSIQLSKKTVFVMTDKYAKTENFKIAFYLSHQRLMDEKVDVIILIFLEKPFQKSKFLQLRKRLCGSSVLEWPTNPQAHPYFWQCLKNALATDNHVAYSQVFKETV
Method in brief: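 Compounds added to HEK cells expressing TLR7 with an NFκB reporter 30 min ahead of 10 uM R848 challenge; luciferase signal (Steady-Glo) measured after 5 h, cells having been seeded 24 h earlier at 5000 per well.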

TLR8 = target: T2, TLR8 (Homo sapiens, UniProt Q9NR97); experiment: HEK/293 TLR8 Cell Assay; format: cell-based; settings: HEK cells, R848 agonist 30 uM final concentration, Steady-Glo readout; read-out: TLR8 potency
T2 construct: expressed in transfected cells; host or cells: HEK/293 reporter cells (NF-kB luciferase)
T2 sequence (Q9NR97 27-1041): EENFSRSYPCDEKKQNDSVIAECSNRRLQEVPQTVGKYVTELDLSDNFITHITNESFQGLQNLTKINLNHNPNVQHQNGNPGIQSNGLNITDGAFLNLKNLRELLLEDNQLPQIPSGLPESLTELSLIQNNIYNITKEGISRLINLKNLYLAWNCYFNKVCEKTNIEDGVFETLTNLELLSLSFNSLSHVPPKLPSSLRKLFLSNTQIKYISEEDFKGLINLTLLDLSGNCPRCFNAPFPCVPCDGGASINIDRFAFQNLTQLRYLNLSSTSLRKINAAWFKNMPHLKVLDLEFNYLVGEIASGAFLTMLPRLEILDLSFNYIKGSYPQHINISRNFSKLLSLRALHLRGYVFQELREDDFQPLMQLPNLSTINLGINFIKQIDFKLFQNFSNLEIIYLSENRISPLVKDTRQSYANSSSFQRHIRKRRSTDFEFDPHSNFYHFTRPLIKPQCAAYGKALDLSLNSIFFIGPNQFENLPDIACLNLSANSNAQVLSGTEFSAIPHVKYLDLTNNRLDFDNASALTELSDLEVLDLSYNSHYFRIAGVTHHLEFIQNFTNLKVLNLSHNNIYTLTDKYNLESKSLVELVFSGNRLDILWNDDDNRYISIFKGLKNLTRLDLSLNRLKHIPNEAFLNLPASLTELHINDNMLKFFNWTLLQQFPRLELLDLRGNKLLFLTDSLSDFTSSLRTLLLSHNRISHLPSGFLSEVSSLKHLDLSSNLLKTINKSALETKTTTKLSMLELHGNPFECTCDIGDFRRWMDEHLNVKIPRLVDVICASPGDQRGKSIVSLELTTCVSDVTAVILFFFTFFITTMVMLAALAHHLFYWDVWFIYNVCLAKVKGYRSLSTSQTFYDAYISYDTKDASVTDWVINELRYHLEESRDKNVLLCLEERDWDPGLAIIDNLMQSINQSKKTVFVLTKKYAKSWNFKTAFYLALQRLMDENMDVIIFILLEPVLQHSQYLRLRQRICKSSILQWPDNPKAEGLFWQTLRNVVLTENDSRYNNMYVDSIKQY

IC50 (TLR7) | IC50 (TLR8) | SMILES
< 0.075 µM | < 0.075 µM | CONC(=O)CCN[C@@H]1C[C@H](C)CN(c2ccc(C(F)(F)F)c3ncccc23)C1 [Example 55, N-Methoxy-3-[(3R,5S)-5-methyl-1-(8-trifluoromethyl-quinolin-5-yl)-piperidin-3-ylamino]-propionamide]
0.075 to 0.15 µM | < 0.075 µM | CNC(=O)CCN[C@@H]1C[C@H](C)CN(c2ccc(C(F)(F)F)c3ncccc23)C1 [Example 56, N-Methyl-3-[(3R,5S)-5-methyl-1-(8-trifluoromethyl-quinolin-5-yl)-piperidin-3-ylamino]-propionamide]
0.075 to 0.15 µM | > 0.15 µM | C[C@H]1C[C@@H](NC(=O)CC2CN(C)C2)CN(c2cc(F)c(C#N)c3ncccc23)C1 [Example 59, N-[(3R,5S)-1-(8-Cyano-7-fluoro-quinolin-5-yl)-5-methyl-piperidin-3-yl]-2-(1-methyl-azetidin-3-yl)-acetamide]
< 0.075 µM | < 0.075 µM | N#Cc1ccc(N2C[C@H](NC(=O)C(O)CO)C[C@H](C(F)(F)F)C2)c2cccnc12 (stereo partly drawn) [Example 60, N-[(3R,5S)-1-(8-Cyano-quinolin-5-yl)-5-trifluoromethyl-piperidin-3-yl]-2,3-dihydroxy-propionamide]
> 0.15 µM | > 0.15 µM | N#Cc1ccc(N2C[C@H](NC(=O)CO)C[C@H](C(F)(F)F)C2)c2cccnc12 [Example 62, N-[(3R,5S)-1-(8-Cyano-quinolin-5-yl)-5-trifluoromethyl-piperidin-3-yl]-2-hydroxy-acetamide]
< 0.075 µM | < 0.075 µM | CN1CCC(O)(CC(=O)N[C@@H]2C[C@H](C(F)(F)F)CN(c3ccc(C(F)(F)F)c4nccnc34)C2)CC1 [Example 63, 2-(4-hydroxy-1-methylpiperidin-4-yl)-N-[(3R,5S)-5-(trifluoromethyl)-1-[8-(trifluoromethyl)quinoxalin-5-yl]piperidin-3-yl]acetamide]
< 0.075 µM | < 0.075 µM | CN(C)CCC(=O)N[C@@H]1C[C@H](C(F)(F)F)CN(c2ccc(C(F)(F)F)c3ncccc23)C1 [Example 64, 3-(dimethylamino)-N-[(3R,5S)-5-(trifluoromethyl)-1-[8-(trifluoromethyl)quinolin-5-yl]piperidin-3-yl]propanamide]
< 0.075 µM | < 0.075 µM | CN(C)CCC(=O)N[C@@H]1C[C@H](C(F)(F)F)CN(c2ccc(C#N)c3ncccc23)C1 [Example 65, N-[(3R,5S)-1-(8-cyanoquinolin-5-yl)-5-(trifluoromethyl)piperidin-3-yl]-3-(dimethylamino)propanamide]
< 0.075 µM | < 0.075 µM | CN1CCN(CC(=O)N[C@@H]2C[C@H](C(F)(F)F)CN(c3ccc(C(F)(F)F)c4ncccc34)C2)CC1 [Example 66, 2-(4-methylpiperazin-1-yl)-N-[(3R,5S)-5-(trifluoromethyl)-1-[8-(trifluoromethyl)quinolin-5-yl]piperidin-3-yl]acetamide]
< 0.075 µM | < 0.075 µM | CN1CCC(O)(CC(=O)N[C@@H]2C[C@H](C(F)(F)F)CN(c3ccc(C(F)(F)F)c4ncccc34)C2)CC1 [Example 67, 2-(4-hydroxy-1-methylpiperidin-4-yl)-N-[(3R,5S)-5-(trifluoromethyl)-1-[8-(trifluoromethyl)quinolin-5-yl]piperidin-3-yl]acetamide]
< 0.075 µM | < 0.075 µM | Cc1c(F)cc(N2C[C@H](NC(=O)CC3(O)CCN(C)CC3)C[C@H](C(F)(F)F)C2)c2cccnc12 [Example 68, hydrochloride]
< 0.075 µM | < 0.075 µM | Cc1c(F)cc(N2C[C@@H](C)C[C@@H](NC(=O)CC3(O)CCN(C)CC3)C2)c2cccnc12 [Example 69, N-[(3R,5S)-1-(7-fluoro-8-methylquinolin-5-yl)-5-methylpiperidin-3-yl]-2-(4-hydroxy-1-methylpiperidin-4-yl)acetamide]
0.075 to 0.15 µM | 0.075 to 0.15 µM | Cc1ncc(N2C[C@H](NC(=O)CN3CCN(C)CC3)C[C@H](C(F)(F)F)C2)c2cccnc12 [Example 70, N-[(3R,5S)-1-(8-methyl-1,7-naphthyridin-5-yl)-5-(trifluoromethyl)piperidin-3-yl]-2-(4-methylpiperazin-1-yl)acetamide]
< 0.075 µM | 0.075 to 0.15 µM | CN1CCC(F)(CC(=O)N[C@@H]2C[C@H](C(F)(F)F)CN(c3ccc(C#N)c4ncncc34)C2)CC1 [Example 71, N-[(3R,5S)-1-(8-cyanoquinazolin-5-yl)-5-(trifluoromethyl)piperidin-3-yl]-2-(4-fluoro-1-methylpiperidin-4-yl)acetamide]
0.075 to 0.15 µM | > 0.15 µM | CN1CCC(O)(CC(=O)N[C@@H]2C[C@H](C(F)(F)F)CN(c3ccc(C#N)c4ncccc34)C2)CC1 [Example 73, N-[(3R,5S)-1-(8-cyanoquinolin-5-yl)-5-(trifluoromethyl)piperidin-3-yl]-2-(4-hydroxy-1-methylpiperidin-4-yl)acetamide]

SMILES | IC50 (TLR7) | IC50 (TLR8)
C[C@H]1C[C@@H](N)CN(c2cc(F)c(C#N)c3ncccc23)C1 [Example 57, 5-((3R,5S)-3-Amino-5-methyl-piperidin-1-yl)-7-fluoro-quinoline-8-carbonitrile] | < 0.075 µM | < 0.075 µM
C[C@H]1C[C@@H](NC(=O)Cc2cnn(C)c2)CN(c2cc(F)c(C#N)c3ncccc23)C1 [Example 58, N-[(3R,5S)-1-(8-Cyano-7-fluoro-quinolin-5-yl)-5-methyl-piperidin-3-yl]-2-(1-methyl-1H-pyrazol-4-yl)-acetamide] | > 0.15 µM | 0.075 to 0.15 µM
CN1CCC(C(=O)N[C@@H]2C[C@H](C(F)(F)F)CN(c3ccc(C#N)c4ncccc34)C2)CC1 [Example 61, 1-Methyl-piperidine-4-carboxylic acid [(3R,5S)-1-(8-cyano-quinolin-5-yl)-5-trifluoromethyl-piperidin-3-yl]-amide] | < 0.075 µM | < 0.075 µM
C[C@H]1C[C@@H](NC(=O)CC2(O)CCN(C)CC2)CN(c2ccc(C#N)c3nccnc23)C1 [Example 72, N-[(3R,5S)-1-(8-cyanoquinoxalin-5-yl)-5-methylpiperidin-3-yl]-2-(4-hydroxy-1-methylpiperidin-4-yl)acetamide hydrochloride] | < 0.075 µM | < 0.075 µM
Cc1cc(CC(=O)N[C@@H]2C[C@H](C)CN(c3ccc(C#N)c4nccnc34)C2)on1 [Example 74, N-[(3R,5S)-1-(8-cyanoquinoxalin-5-yl)-5-methylpiperidin-3-yl]-2-(3-methyl-1,2-oxazol-5-yl)acetamide] | < 0.075 µM | < 0.075 µM
CN(C)CCC(=O)N[C@@H]1C[C@H](C(F)(F)F)CN(c2ccc(C#N)c3nccnc23)C1 [Example 75] | < 0.075 µM | < 0.075 µM
